From BigSolDB 2.1

Cc1c(C(=O)O)cccc1[N+](=O)[O-]
solubility (mole fraction)
Settings | in 1,4-dioxane | in 2-butanone | in acetone | in acetonitrile | in ethanol | in ethyl acetate | in isopropanol | in methanol | in n-propanol
283.15 K | – | 0.0528 | 0.0601 | 0.00849 | 0.0149 | 0.0312 | 0.0129 | 0.0162 | 0.0111
285.65 K | 0.0704 | 0.0544 | 0.0614 | 0.00919 | 0.0165 | 0.0325 | 0.0145 | 0.018 | 0.0127
288.15 K | 0.0718 | 0.056 | 0.0627 | 0.00993 | 0.0186 | 0.0341 | 0.0164 | 0.0202 | 0.0144
290.65 K | 0.0734 | 0.0576 | 0.0641 | 0.0107 | 0.0207 | 0.0357 | 0.0184 | 0.0225 | 0.0162
293.15 K | 0.0749 | 0.0592 | 0.0655 | 0.0117 | 0.0232 | 0.0373 | 0.0206 | 0.0255 | 0.0182
295.65 K | 0.0764 | 0.0609 | 0.0668 | 0.0127 | 0.0259 | 0.039 | 0.023 | 0.0286 | 0.0205
298.15 K | 0.0779 | 0.0626 | 0.0684 | 0.0138 | 0.0286 | 0.0406 | 0.0259 | 0.0319 | 0.0231
300.65 K | 0.0796 | 0.0645 | 0.0699 | 0.0149 | 0.0317 | 0.0423 | 0.0289 | 0.0354 | 0.0258
303.15 K | 0.0814 | 0.0664 | 0.0715 | 0.0161 | 0.0351 | 0.0442 | 0.0324 | 0.0392 | 0.0291
305.65 K | 0.0831 | 0.0683 | 0.0728 | 0.0172 | 0.0388 | 0.046 | 0.0362 | 0.0436 | 0.0326
308.15 K | 0.0847 | 0.0703 | 0.0745 | 0.0186 | 0.043 | 0.0478 | 0.0396 | 0.0483 | 0.0365
310.65 K | 0.0865 | 0.0722 | 0.0761 | 0.0199 | 0.0475 | 0.0499 | 0.0438 | 0.0529 | 0.0404
313.15 K | 0.0884 | 0.0741 | 0.0777 | 0.0211 | 0.0524 | 0.0518 | 0.0485 | 0.0579 | 0.0455
315.65 K | 0.0902 | 0.0764 | 0.0793 | 0.0226 | 0.0579 | 0.054 | 0.0533 | 0.0634 | 0.0506
318.15 K | 0.0921 | 0.0786 | 0.0808 | 0.0242 | 0.064 | 0.056 | 0.0587 | 0.0685 | 0.0556
